Tests used:
[1] = test system: Macrotyloma uniflorum urease; assay: in vitro urease inhibitory assay (modified Berthelot reaction, indophenol blue, absorbance at 630 nm); assay type: biochemical, Macrotyloma uniflorum (Horse gram); settings: for Maximum Percentage of Inhibition: maximum over tested range 5.00-35.00 μg/mL; for IC50: urease extracted from Macrotyloma uniflorum, thiourea as standard inhibitor, 37 °C, pH 7.2
Procedure: All synthesized oxime compounds (2, 6, 7, 8, and 9) were evaluated for the in vitro urease inhibitory activity using a colorimetric method. This method involves the formation of indophenol blue in a basic medium where the modified Berthelot reaction is used. The urease enzyme required for the assay was extracted from Macrotyloma uniflorum (Horse gram) with the activity of 0.1013 U, and thiourea was used as the standard inhibitor [34]. The amount of ammonia produced within a given period of time was quantified using a standard calibration method.
Modified Berthelot method was used for the determination of the amount of produced ammonia, and thereby for the quantification of the urease inhibitory activities of the synthesized oxime derivatives (compounds 2, 6, 7, 8, and 9) by measuring their absorbance at 630 nm. All the test compounds and thiourea were prepared by dissolving 2 mg of each compound in 20 mL of 1.25% DMF - buffer solution (pH = 7.2, Na2HPO4 = 0.067 mol dm^−3, KH2PO4 = 0.033 mol dm^−3). DMF doesn’t show any inhibitory effect on urease activity. Initially, a 96 well plate filled with 10 μL of urease enzyme (0.01 U) and 10–70 μL of the test compound was placed in the plate reader and incubated at 37 °C for 15 min. (Concentration of each sample was changed by varying the volume of test compounds from 10 to 70 μL.) Then, to each well, 10 μL of the buffer, 10 μL of EDTA (0.025 mol dm^−3), and 10 μL of urea (0.64 mol dm^−3) were added. After that, 80–20 μL of distilled water was added accordingly to adjust the total volume to 130 μL and incubated in plate reader for another 20 min at 37 °C. Then 35 μL of each coloring agents ((coloring agent A—1% (w/v) phenol, 0.005% (w/v) sodium nitroprusside and coloring agent B—0.5% (w/v) NaOH, 0.05% (v/v) NaOCl)) were introduced to each well, and the plate was incubated in plate reader for another 50 min at 37 °C for the development of indophenol blue color. At the end of the 50 min, the absorbance of each sample was measured at the absorbance wavelength of 630 nm. A control test was conducted to quantify the total hydrolysis of urea in the presence of urease (C). Negative control was carried out to quantify the spontaneous hydrolysis of urea in the absence of the urease enzyme (N). For each sample (T1–7), a negative control test (N1–7) was performed in the absence of the urease enzyme. All experiments were performed thrice. The percentage inhibition of the urease enzyme was calculated using Equation (1). (1) percentage inhibition=[[AC−AN]−[AT1−AN1]/[AC−AN]]×100 where • AC = Absorbance of the control sample (C) • AN = Absorbance of the negative control sample (N) • AT1−7 = Absorbance of the test sample (T1 to T7) • AN1−7 = Absorbance of the negative control of the test sample (N1 to N7)

Compound	Percentage inhibition (± SEM) ([1]; at 5.00 μg/mL) [%]	Percentage inhibition (± SEM) ([1]; at 10.00 μg/mL) [%]	Percentage inhibition (± SEM) ([1]; at 15.00 μg/mL) [%]	Percentage inhibition (± SEM) ([1]; at 20.00 μg/mL) [%]	Percentage inhibition (± SEM) ([1]; at 25.00 μg/mL) [%]	Percentage inhibition (± SEM) ([1]; at 30.00 μg/mL) [%]	Maximum Percentage of Inhibition [1] [%]	IC50 [1] [µM]	melting point [°C]
Cn1cc(/C=N/O)c2ccccc21 [Compound 7, (E)-N-hydroxy-1-(1-methyl-1H-indol-3-yl)methanimine]	22.74 ± 0.93	31.87 ± 0.59	38.14 ± 1.25	44.38 ± 0.35	48.92 ± 0.67	53.01 ± 0.85	57.17	153 ± 1.6	126 to 129
O/N=C\c1cn(Cc2ccccc2)c2ccccc12 [Compound 8, (Z)-1-(1-benzyl-1H-indol-3-yl)-N-hydroxymethanimine]	36.36 ± 0.79	44.39 ± 0.70	58.52 ± 0.58	67.99 ± 1.01	76.49 ± 1.24	79.64 ± 0.88	83.78	51.6 ± 3.5	132 to 134
O/N=C\c1c[nH]c2ccccc12 [Compound 2, (Z)-N-hydroxy-1-(1H-indole-3-yl)methanimine]	17.46 ± 0.71	24.56 ± 0.53	29.28 ± 0.52	39.40 ± 0.65	57.27 ± 0.63	64.87 ± 0.93	67.81	141 ± 7.5	
Cn1cc(/C=N\O)c2ccccc21 [Compound 6, (Z)-N-hydroxy-1-(1-methyl-1H-indol-3-yl)methanimine]	24.57 ± 1.22	28.15 ± 0.81	29.91 ± 0.90	40.38 ± 0.24	55.76 ± 0.60	73.07 ± 0.35	77.05	140 ± 4.5	112 to 115
O/N=C/c1cn(Cc2ccccc2)c2ccccc12 [Compound 9, (E)-1-(1-benzyl-1H-indol-3-yl)-N-hydroxymethanimine]	33.06 ± 1.23		72.38 ± 0.77	77.61 ± 1.55	83.21 ± 0.82	84.89 ± 0.47	86.09	34.5 ± 0.8	140 to 143
NC(N)=S [Thiourea, thiourea, reference compound]	11.24 ± 0.28	22.61 ± 0.49	38.41 ± 0.63	61.54 ± 0.53	74.36 ± 0.50	81.49 ± 0.67	85.14	239 ± 4.8	

Source: publication PMC8588131, “Synthesis, In Silico Studies, and Evaluation of Syn and Anti Isomers of N-Substituted Indole-3-carbaldehyde Oxime Derivatives as Urease Inhibitors against Helicobacter pylori” (Molecules, 2021)
